Here are results for 32 compounds from US20250115583A1, “BICYCLIC INDAZOLE GLUCOCORTICOID RECEPTOR ANTAGONISTS” (Corcept Therapeutics Incorporated, priority 2021, published 2025).

The term Ki denotes a dissociation constant, usually derived from enzyme kinetics or from competition with a known ligand. A lower Ki goes with higher affinity.

glucocorticoid receptor, sequence (P04150 whole entry): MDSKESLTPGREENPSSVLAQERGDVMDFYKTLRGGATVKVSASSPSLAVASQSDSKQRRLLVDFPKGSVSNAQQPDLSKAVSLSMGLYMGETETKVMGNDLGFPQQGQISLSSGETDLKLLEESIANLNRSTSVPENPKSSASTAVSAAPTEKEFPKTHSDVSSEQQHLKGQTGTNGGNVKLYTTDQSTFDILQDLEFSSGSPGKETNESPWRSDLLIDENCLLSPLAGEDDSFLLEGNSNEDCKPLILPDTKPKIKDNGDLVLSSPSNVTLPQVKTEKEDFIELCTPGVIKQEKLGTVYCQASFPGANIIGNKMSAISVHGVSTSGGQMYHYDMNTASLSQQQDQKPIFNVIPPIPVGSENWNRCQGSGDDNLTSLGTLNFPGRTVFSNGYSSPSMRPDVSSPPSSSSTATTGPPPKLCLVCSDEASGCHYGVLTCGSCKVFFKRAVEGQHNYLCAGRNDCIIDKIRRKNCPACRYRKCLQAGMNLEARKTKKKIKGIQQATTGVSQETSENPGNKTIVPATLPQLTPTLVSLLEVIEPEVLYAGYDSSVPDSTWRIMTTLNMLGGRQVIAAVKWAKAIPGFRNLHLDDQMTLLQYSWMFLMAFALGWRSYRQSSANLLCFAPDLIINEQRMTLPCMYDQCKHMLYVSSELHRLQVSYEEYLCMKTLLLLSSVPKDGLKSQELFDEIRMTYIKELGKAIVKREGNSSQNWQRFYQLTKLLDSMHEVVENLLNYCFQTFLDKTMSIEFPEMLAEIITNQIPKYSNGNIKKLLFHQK

For this assay, the target named is glucocorticoid receptor (Homo sapiens (Human), UniProt P04150). Kind of assay: HepG2 TAT assay: inhibition of dexamethasone-induced tyrosine aminotransferase (TAT) activity. In kind it is cell-based. As to conditions: HepG2 cells, challenge of 100 nM dexamethasone, 18-24 hr; IC50 converted to Ki by Cheng and Prusoff equation. The method, then:
Glucocorticoid mediated activation of TAT occurs by transactivation of glucocorticoid response elements in the TAT promoter by glucocorticoid receptor-agonist complex.
HepG2 cells were cultured using MEME media supplemented with 10% (v/v) foetal bovine serum; 2 mM L-glutamine and 1% (v/v) NEAA at 37° C., 5%/95% (v/v) CO2/air.
Compounds were serially half log diluted in 100% (v/v) dimethylsulphoxide from a 10 mM stock.
HepG2 cells were then lysed with 30 μl of cell lysis buffer containing a protease inhibitor cocktail for 15 minutes at 4° C. […] After 2 hours incubation at 37° C. the reaction was terminated by the addition of 15 μl of 10M aqueous potassium hydroxide solution, and the plates incubated for a further 30 minutes at 37° C.
[compound] and fitting the data to a 4 parameter logistic equation.
For `COC1(c2ccccc2)CC2CN(S(=O)(=O)c3ccn(C)n3)CC2(c2cc3cnn(-c4ccc(F)cc4)c3cc2C)C1` (centres unmarked) [Example 31], the Ki worked out at 0.13 µM. This lies in the sub-micromolar range. The compound `Cc1cc2c(cnn2-c2ccc(F)cc2)cc1C12CC(Oc3ccccc3)CC1CN(S(C)(=O)=O)C2` (centres unmarked) [Example 37, 1-(4-fluorophenyl)-6-methyl-5-(2-(methylsulfonyl)-5-phenoxyhexahydrocyclopenta[c]pyrrol-3a(1H)-yl)-1H-indazole] showed a Ki of 0.17 µM. The result for `Cc1cc2c(cnn2-c2ccc(F)cc2)cc1[C@@]12CN(C(=O)c3cc(C(F)(F)F)ccn3)C[C@@H]1[C@H]2c1ccccc1` (single isomer, unassigned) [Example 150, (1-(1-(4-fluorophenyl)-6-methyl-1H-indazol-5-yl)-6-phenyl-3-azabicyclo[3.1.0]hexan-3-yl)(4-(trifluoromethyl)pyridin-2-yl)methanone] reads 0.018 µM. Next, `Cc1cc2c(cnn2-c2ccc(F)cc2)cc1[C@@]12CN(C(=O)c3cccnc3)C[C@@H]1[C@H]2c1ccccc1` (single isomer, unassigned) [Example 112, (1-(1-(4-fluorophenyl)-6-methyl-1H-indazol-5-yl)-6-phenyl-3-azabicyclo[3.1.0]hexan-3-yl)(pyridin-3-yl)methanone]: 0.065 µM; `Cc1cc2c(cnn2-c2ccc(F)cc2)cc1[C@]12CN(S(=O)(=O)c3cnn(C)n3)C[C@H]1[C@@H]2C(=O)Nc1ccc(F)cn1` (stereo in doubt) [Example 54, 1-(1-(4-fluorophenyl)-6-methyl-1H-indazol-5-yl)-N-(5-fluoropyridin-2-yl)-3-((2-methyl-2H-1,2,3-triazol-4-yl)sulfonyl)-3-azabicyclo[3.1.0]hexane-6-carboxamide]: 0.033 µM; `Cc1cc2c(cnn2-c2ccc(F)cc2)cc1C12CN(S(=O)(=O)c3cnn(C)c3)CC1CC(O)(c1ccccc1)C2` (centres unmarked) [Example 10, 3a-(1-(4-fluorophenyl)-6-methyl-1H-indazol-5-yl)-2-((1-methyl-1H-pyrazol-4-yl)sulfonyl)-5-phenyloctahydrocyclopenta[c]pyrrol-5-ol]: 0.22 µM. Consider `Cc1cc2c(cnn2-c2ccc(F)cc2)cc1[C@@]12CN(S(=O)(=O)c3cnn(C)n3)C[C@@H]1[C@H]2c1nc2ccccc2o1` [Example 134, 2-(1-(1-(4-fluorophenyl)-6-methyl-1H-indazol-5-yl)-3-((2-methyl-2H-1,2,3-triazol-4-yl)sulfonyl)-3-azabicyclo[3.1.0]hexan-6-yl)benzo[d]oxazole], for which the affinity, expressed as Ki, was 0.055 µM.

Regarding `Cc1cc2c(cnn2-c2ccc(F)cc2)cc1[C@]12CN(S(=O)(=O)c3cnn(C)n3)C[C@H]1[C@@H]2c1ccccc1` [Example 72], affinity was put at a Ki of 0.16 µM. On to `Cc1cc2c(cnn2-c2ccc(F)cc2)cc1[C@@]12CN(S(=O)(=O)N3CCC3)C[C@@H]1[C@H]2c1ccccc1` [Example 105], for which the Ki came out at 0.014 µM. Consider `CCCn1cc(S(=O)(=O)N2C[C@@H]3[C@@H](c4ccccc4)[C@]3(c3cc4cnn(-c5ccc(F)cc5)c4cc3C)C2)cn1` (single isomer, unassigned) [Example 69, 1-(4-fluorophenyl)-6-methyl-5-(6-phenyl-3-((1-propyl-1H-pyrazol-4-yl)sulfonyl)-3-azabicyclo[3.1.0]hexan-1-yl)-1H-indazole], for which the Ki is 0.024 µM. `Cc1cc2c(cnn2-c2ccc(F)cc2)cc1[C@@]12CN(C(=O)C3CCOCC3)C[C@@H]1[C@H]2c1ccccc1` (stereo in doubt) [Example 160, (1-(1-(4-fluorophenyl)-6-methyl-1H-indazol-5-yl)-6-phenyl-3-azabicyclo[3.1.0]hexan-3-yl)(tetrahydro-2H-pyran-4-yl)methanone] came in with a Ki of 0.07 µM. Compared with the last compound, the Ki is about 2.9-fold higher. In turn, `CO[C@@]1(c2ccccc2)C[C@H]2CN(C(=O)c3ccccc3)C[C@@]2(c2cc3cnn(-c4ccc(F)cc4)c3cc2C)C1` (single isomer, unassigned) [Example 20, (3a-(1-(4-fluorophenyl)-6-methyl-1H-indazol-5-yl)-5-methoxy-5-phenylhexahydrocyclopenta[c]pyrrol-2(1H)-yl)(phenyl)methanone] returned a Ki of 0.079 µM. The Ki values of the last two compounds are within 1.5-fold of each other.

Turning to `Cc1cc2c(cnn2-c2ccc(F)cc2)cc1[C@@]12CN(C(=O)c3ccccc3)C[C@@H]1[C@H]2CN1CCOCC1` (stereo in doubt) [Example 180, (1-(1-(4-fluorophenyl)-6-methyl-1H-indazol-5-yl)-6-(morpholinomethyl)-3-azabicyclo[3.1.0]hexan-3-yl)(phenyl)methanone], the Ki stood at 0.6 µM. Turning to `Cc1cc2c(cnn2-c2ccc(F)cc2)cc1[C@]12CN(C(=O)c3cnnn3C)C[C@H]1[C@@H]2c1ccccc1` [Example 144, (1-(1-(4-fluorophenyl)-6-methyl-1H-indazol-5-yl)-6-phenyl-3-azabicyclo[3.1.0]hexan-3-yl)(1-methyl-1H-l,2,3-triazol-5-yl)methanone], the Ki was 0.12 µM. This Ki lies about 5-fold lower than the previous one. The result for `Cc1cc2c(cnn2-c2ccc(F)cc2)cc1[C@@]12CN(C(=O)c3ncnn3C)C[C@@H]1[C@H]2c1ccccc1` (single isomer, unassigned) [Example 170, (1-(1-(4-fluorophenyl)-6-methyl-1H-indazol-5-yl)-6-phenyl-3-azabicyclo[3.1.0]hexan-3-yl)(1-methyl-1H-1,2,4-triazol-5-yl)methanone] reads 0.041 µM; that for `Cc1cc2c(cnn2-c2ccc(F)cc2)cc1[C@@]12CN(S(=O)(=O)N3CCCC3)C[C@@H]1[C@H]2c1ccccc1` (single isomer, unassigned) [Example 99], 0.028 µM.

For `CCCn1ncc(S(=O)(=O)N2CC3CC(OC)(c4ccccc4)CC3(c3cc4cnn(-c5ccc(F)cc5)c4cc3C)C2)n1` (centres unmarked) [Example 27], the affinity, expressed as Ki, was 0.078 µM. The result for “5-(6-((4,4-difluoropiperidin-1-yl)methyl)-3-((2-methyl-2H-1,2,3-triazol-4-yl)sulfonyl)-3-azabicyclo[3.1.0]hexan-1-yl)-1-(4-fluorophenyl)-6-methyl-1H-indazole [Example 181]” reads 0.25 µM; that for `COC1(c2cccc(C)c2)CC2CN(S(=O)(=O)c3cnn(C)c3)CC2(c2cc3cnn(-c4ccc(F)cc4)c3cc2C)C1` (centres unmarked) [Example 14], 0.11 µM. Consider `Cc1cc2c(cnn2-c2ccc(F)cc2)cc1[C@]12CN(S(=O)(=O)N3CCOCC3)C[C@H]1[C@@H]2c1ccccc1` [Example 87], for which the Ki worked out at 0.02 µM. `Cc1cc2c(cnn2-c2ccc(F)cc2)cc1[C@]12CN(S(=O)(=O)c3cnn(C(C)C)n3)C[C@H]1[C@@H]2c1ccccc1` [Example 80]: the Ki came to 0.023 µM.

`Cc1cc2c(cnn2-c2ccc(F)cc2)cc1[C@@]12CN(S(=O)(=O)c3cnn(C)n3)C[C@@H]1[C@H]2c1ccccc1` [Example 70] displayed a Ki of 0.024 µM.

Compound `Cc1cc2c(cnn2-c2ccc(F)cc2)cc1[C@@]12CN(S(=O)(=O)N(C)C)C[C@@H]1[C@H]2c1ccccc1` [Example 108] had a Ki of 0.016 µM. Next, `Cc1cc2c(cnn2-c2ccc(F)cc2)cc1[C@]12CN(S(=O)(=O)c3cnn(C)c3)C[C@H]1[C@@H]2c1ccccc1` [Example 73]: 0.036 µM; `Cc1cc2c(cnn2-c2ccc(F)cc2)cc1[C@@]12CN(S(=O)(=O)N3CCCCC3)C[C@@H]1[C@H]2c1ccccc1` [Example 102]: 0.026 µM; `Cc1cc2c(cnn2-c2ccc(F)cc2)cc1[C@@]12CN(C(=O)c3ccccc3)C[C@@H]1[C@H]2Cc1ccccc1` (stereo in doubt) [Example 184, (6-benzyl-1-(1-(4-fluorophenyl)-6-methyl-1H-indazol-5-yl)-3-azabicyclo[3.1.0]hexan-3-yl)(phenyl)methanone]: 0.86 µM. The result for `Cc1cc2c(cnn2-c2ccc(F)cc2)cc1[C@@]12CN(S(=O)(=O)C3COC3)C[C@@H]1[C@H]2c1ccccc1` (single isomer, unassigned) [Example 140, 5-(3-(oxetan-3-ylsulfonyl)-6-phenyl-3-azabicyclo[3.1.0]hexan-1-yl)-1-(4-fluorophenyl)-6-methyl-1H-indazole] reads 0.065 µM; that for `Cc1cc2c(cnn2-c2ccc(F)cc2)cc1[C@@]12CN(C(=O)c3ccccn3)C[C@@H]1[C@H]2c1ccccc1` (stereo in doubt) [Example 116, (1-(1-(4-fluorophenyl)-6-methyl-1H-indazol-5-yl)-6-phenyl-3-azabicyclo[3.1.0]hexan-3-yl)(pyridin-2-yl)methanone], 0.031 µM. With `CO[C@@]1(c2ccccc2)C[C@H]2CN(S(=O)(=O)c3cnn(C)c3)C[C@@]2(c2cc3cnn(-c4ccc(F)cc4)c3cc2C)C1` [Example 6, 1-(4-fluorophenyl)-5-((3aS,5S,6aR)-5-methoxy-2-((1-methyl-1H-pyrazol-4-yl)sulfonyl)-5-phenylhexahydrocyclopenta[c]pyrrol-3a(1H)-yl)-6-methyl-1H-indazole], the Ki was 0.044 µM. The result for `Cc1cc2c(cnn2-c2ccc(F)cc2)cc1[C@@]12CN(S(=O)(=O)N3CC(C#N)C3)C[C@@H]1[C@H]2c1ccccc1` [Example 103] reads 0.027 µM.

`Cc1cc2c(cnn2-c2ccc(F)cc2)cc1[C@]12CN(S(=O)(=O)CC3CC3)C[C@H]1[C@@H]2c1ccccc1` [Example 93] registered a Ki of 0.029 µM. On to `Cc1cc2c(cnn2-c2ccc(F)cc2)cc1[C@@]12CN(C(=O)c3cc(C)n(C)n3)C[C@@H]1[C@H]2c1ccccc1` (stereo in doubt) [Example 177, (1,5-dimethyl-1H-pyrazol-3-yl)(1-(1-(4-fluorophenyl)-6-methyl-1H-indazol-5-yl)-6-phenyl-3-azabicyclo[3.1.0]hexan-3-yl)methanone], for which the affinity corresponds to a Ki of 0.023 µM.
